Results on 25 molecules are retold here after patent publication US12281079B2, “Quinoline derivatives, processes for their preparation and uses thereof for the treatment of cancer” (Lead Discovery Center GmbH, priority 2019, dated 2025).

pIC50: −log10 of the molar value. Structures can show the parent of a compound that is named as a salt. A value given as a limit tells only on which side of the number the result lay.

Assay [1] relates to mitochondrial transcription (7S RNA) in HeLa cells. In words: Quantitative real time-PCR assay of inhibition of mitochondrial transcription (7S RNA) in HeLa cells. It counts as cell-based. The settings on record: Homo sapiens, 4 h compound incubation, according to Example 5, read-out: cellular qPCR assay. As to the method:
Quantitative real-time PCR (qRT-PCR), based on the TaqMan™ (Thermo Fisher Scientific, Waltham Mass.) technology, was carried out essentially as described in Held et al. (1996). HeLa cells were plated one day before compound treatment in RPMI medium supplemented with 10% Fetal Calf Serum and 2 mM L-glutamine. Cells were incubated with dilution series of compounds or vehicle (DMSO) for 4 h, prior to harvest and extraction of the RNA using the RNeasy Mini Kit (Qiagen, Hilden D), according to the manufacturer's instructions. RNA concentrations were measured spectroscopically, using a NanoDrop-2000 (Thermo Fisher Scientific, Waltham Mass.) and normalized prior to cDNA synthesis, using a ‘High-Capacity cDNA Reverse Transcription Kit’ (Thermo Fisher Scientific, Waltham Mass.). qRT-PCR was carried out using the ‘TaqMan Fast Advance Master Mix’ (Thermo Fisher Scientific, Waltham Mass.) on a 7500 Fast Real-Time PCR machine (Applied Biosystems, Foster City Calif.)
For these measurements, three genes were used to compare the effect of the scrutinized compounds in relation to their concentration. The POLRMT-gene was used to detect potential influences on nuclear transcription. Mitochondrial transcription in vivo was monitored by measurements 7S RNA. The TBP (TATA-box binding protein) gene was employed as the control (housekeeping gene) during qRT-PCR. The short-lived mitochondrial 7S RNA, which is not post-transcriptionally stabilized, allowed us to monitor rapid changes in mitochondrial transcription activity following compound addition. Biological triplicates were analyzed using the comparative CT Method (ΔΔCt) method (Bubner and Baldwin, 2004) and reported as Rq % values (Rq=Relative quantification=2−ΔΔCt).
(In general: Real-time PCR tracks product formation cycle by cycle.)

In assay [2] the target is mitochondrial RNA polymerase (POLRMT) (Mus musculus, UniProt Q8BKF1). Description: Homogeneous TR-FRET assay for mitochondrial transcription activity. In kind it is biochemical. The settings on record: homogeneous TR-FRET assay according to Example 4. Put shortly: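 Read-out is TR-FRET (ex 340, em 665 nm) from two adjacent labelled DNA probes annealing to the 407 bp transcript after EDTA/700 mM NaCl stop. Reaction: murine POLRMT, TFAM, TFB2M and LSP plasmid template, compound 10 μM or serial dilution, 10 min rt preincubation, 500 μM each nucleotide, 2 h rt.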
In general terms: TR-FRET usually uses a lanthanide donor and a delayed reading to cut background.

Chain of mitochondrial RNA polymerase (POLRMT) (Q8BKF1 42-1207): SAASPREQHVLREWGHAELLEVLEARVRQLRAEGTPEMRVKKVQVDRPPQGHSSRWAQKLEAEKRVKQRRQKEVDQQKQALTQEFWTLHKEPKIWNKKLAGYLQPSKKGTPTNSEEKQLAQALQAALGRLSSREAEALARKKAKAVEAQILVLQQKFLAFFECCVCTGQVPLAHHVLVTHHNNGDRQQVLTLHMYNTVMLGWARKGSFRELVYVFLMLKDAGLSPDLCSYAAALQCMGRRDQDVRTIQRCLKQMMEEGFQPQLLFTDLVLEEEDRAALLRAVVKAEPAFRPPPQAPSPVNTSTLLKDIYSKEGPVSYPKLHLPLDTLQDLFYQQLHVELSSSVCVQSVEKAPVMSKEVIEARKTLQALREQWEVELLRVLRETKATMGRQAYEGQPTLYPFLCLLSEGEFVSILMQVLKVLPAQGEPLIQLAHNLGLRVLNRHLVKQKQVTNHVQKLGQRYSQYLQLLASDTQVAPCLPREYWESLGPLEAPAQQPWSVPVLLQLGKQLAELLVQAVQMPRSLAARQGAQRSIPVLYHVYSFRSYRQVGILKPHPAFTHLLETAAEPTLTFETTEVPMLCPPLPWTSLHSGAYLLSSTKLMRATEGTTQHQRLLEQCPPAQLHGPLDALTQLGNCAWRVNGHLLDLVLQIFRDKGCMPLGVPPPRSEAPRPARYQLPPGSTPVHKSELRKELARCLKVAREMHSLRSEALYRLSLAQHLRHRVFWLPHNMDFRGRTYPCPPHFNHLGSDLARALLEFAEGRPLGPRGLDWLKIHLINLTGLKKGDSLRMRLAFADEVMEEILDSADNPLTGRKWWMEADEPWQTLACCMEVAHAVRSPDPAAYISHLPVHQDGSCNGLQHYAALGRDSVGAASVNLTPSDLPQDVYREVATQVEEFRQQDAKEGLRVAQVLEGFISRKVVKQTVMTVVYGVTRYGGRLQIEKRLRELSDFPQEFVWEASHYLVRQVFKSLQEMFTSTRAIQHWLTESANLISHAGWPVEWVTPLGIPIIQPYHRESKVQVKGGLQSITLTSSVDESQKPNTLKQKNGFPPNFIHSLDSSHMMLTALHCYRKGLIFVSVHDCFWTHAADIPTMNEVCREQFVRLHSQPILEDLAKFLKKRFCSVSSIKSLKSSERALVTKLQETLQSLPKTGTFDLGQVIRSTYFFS

For the molecule `Cc1cc(F)cc(C)c1-c1ccnc2cc(O[C@H](C)C(=O)N3CCC4(CCNC4=O)CC3)ccc12` [Compound 181, 8-[(2R)-2-[[4-(4-fluoro-2,6-dimethyl-phenyl)-7-quinolyl]oxy]propanoyl]-2,8-diazaspiro[4.5]decan-1-one], the figures for the pIC50 in assay [1] and in assay [2] were > 8.00 and > 7.70, respectively.

Regarding `C[C@@H](Oc1ccc2c(-c3c(Cl)cc(F)cc3Cl)ccnc2c1)C(=O)N1CCCC[C@@H]1C` [Compound 199, (2R)-2-[[4-(2,6-dichloro-4-fluoro-phenyl)-7-quinolyl]oxy]-1-[(2S)-2-methyl-1-piperidyl]propan-1-one], the pIC50 in assay [1] was > 8.00; in assay [2], 7.00 to 7.70.

As for `C[C@@H](Oc1ccc2c(-c3ccc(F)cc3Cl)ccnc2c1)C(=O)N1CCC[C@](C)(C(=O)O)C1` [Compound 189, (3S)-1-[(2R)-2-[[4-(2-chloro-4-fluoro-phenyl)-7-quinolyl]oxy]propanoyl]-3-methyl-piperidine-3-carboxylic acid], the pIC50 was > 8.00 in assay [1] and > 7.70 in assay [2].

In the case of `C[C@@H](Oc1ccc2c(-c3c(Cl)cc(F)cc3Cl)ccnc2c1)C(=O)N1CCCC(C2(C(=O)O)CC2)C1` (mixture of isomers) [Compound 196, 1-[1-[rac-(2R)-2-[[4-(2,6-dichloro-4-fluoro-phenyl)-7-quinolyl]oxy]propanoyl]-3-piperidyl]cyclopropanecarboxylic acid], the results for the pIC50 in assay [1] and in assay [2] were 7.30 to 8.00 and 7.00 to 7.70, respectively.

`C[C@@H](Oc1ccc2c(-c3ccc(F)cc3Cl)ccnc2c1)C(=O)N1CC[C@@H](NC(=O)NC(C)(C)C)C1` [Compound 214, 1-tertbutyl-3-[(3R)-1-[(2R)-2-[[4-(2-chloro-4-fluoro-phenyl)-7-quinolyl]oxy]propanoyl]pyrrolidin-3-yl]urea]: the figures for the pIC50 in assay [1] and in assay [2] were 6.30 to 7.30 and 6.00 to 7.00, respectively.

Consider `C[C@@H](Oc1ccc2c(-c3ccc(F)cc3Cl)ccnc2c1)C(=O)N1CCNCC1` [Compound 55, (R)-2-((4-(2-chloro-4-fluorophenyl)quinolin-7 yl)oxy)-1-(piperazin-1 yl)propan-1-one 2×TFA salt], for which the pIC50 was 6.30 to 7.30 in assay [1] and 6.00 to 7.00 in assay [2].

As for `Cc1cc(F)cc(C)c1-c1ccnc2cc(O[C@H](C)C(=O)N3CCC[C@@](C)(C(=O)O)C3)ccc12` [Compound 175, (3R)-1-[(2R)-2-[[4-(4-fluoro-2,6-dimethyl-phenyl)-7-quinolyl]oxy]propanoyl]-3-methyl-piperidine-3-carboxylic acid], the pIC50 in assay [1] is > 8.00; in assay [2], > 7.70.

For the molecule `C[C@@H](Oc1ccc2c(-c3ccc(F)cc3Cl)cc(Cl)nc2c1)C(=O)N1CCC[C@H](C(N)=O)C1` [Compound 81, (3S)-1-[(2R)-2-[[2-chloro-4-(2-chloro-4-fluoro-phenyl)-7-quinolyl]oxy]propanoyl]piperidine-3-carboxamide], the pIC50 in assay [1] is 6.30 to 7.30; in assay [2], 5.00 to 6.00.

For `C[C@@H](Oc1ccc2c(-c3ccc(F)cc3Cl)ccnc2c1)C(=O)N1CCC2(COC2)C1` [Compound 213, (2R)-2-[[4-(2-chloro-4-fluoro-phenyl)-7-quinolyl]oxy]-1-(2-oxa-7-azaspiro[3.4]octan-7-yl)propan-1-one], the pIC50 in assay [1] was 6.30 to 7.30; in assay [2] it was 6.00 to 7.00.

In the case of `Cc1cc(F)ccc1-c1cc(Cl)nc2cc(O[C@H](C)C(=O)N3CCC[C@H](CC(=O)O)C3)ccc12` [Compound 57, 2-[(3R)-1-[(2R)-2-[[2-chloro-4-(4-fluoro-2-methyl-phenyl)-7-quinolyl]oxy]propanoyl]-3-piperidyl]acetic acid], the figures for the pIC50 in assay [1] and in assay [2] were 6.30 to 7.30 and 6.00 to 7.00, respectively.

Regarding `C[C@@H](Oc1ccc2c(-c3ccc(F)cc3Cl)ccnc2c1)C(=O)N1CCC[C@@H](S(N)(=O)=O)C1` [Compound 117, (3R)-1-[(2R)-2-[[4-(2-chloro-4-fluoro-phenyl)-7-quinolyl]oxy]propanoyl]piperidine-3-sulfonamide], the pIC50 in assay [1] is 7.30 to 8.00; in assay [2] it was 6.00 to 7.00.

As for `C[C@@H](Oc1ccc2c(-c3ccc(F)cc3Cl)ccnc2c1)C(=O)N1CCCC(CS(N)(=O)=O)C1` (mixture of isomers) [Compound 123, [1-[rac-(2R)-2-[[4-(2-chloro-4-fluoro-phenyl)-7-quinolyl]oxy]propanoyl]-3-piperidyl]methanesulfonamide], the pIC50 is 6.30 to 7.30 in assay [1] and 6.00 to 7.00 in assay [2].

As for `Cc1ccccc1-c1cc(Cl)nc2cc(O[C@H](C)C(=O)N3CCC[C@H](CC(=O)O)C3)ccc12` [Compound 21, 2-[(3R)-1-[(2R)-2-[[2-chloro-4-(o-tolyl)-7-quinolyl]oxy]propanoyl]-3-piperidyl]acetic acid], the pIC50 in assay [1] is 5.30 to 6.30; in assay [2], 7.00 to 7.70.

Take `Cc1cccc(C)c1-c1ccnc2cc(O[C@H](C)C(=O)N3CCC[C@H](C(=O)O)C3)ccc12` [Compound 2, (3S)-1-[(2R)-2-[[4-(2,6-dimethylphenyl)-7-quinolyl]oxy]propanoyl]piperidine-3-carboxylic acid]: the pIC50 in assay [1] is > 8.00; in assay [2] it was > 7.70.

For `C[C@@H](Oc1ccc2c(-c3ccc(F)cc3Cl)ccnc2c1)C(=O)N1CCNC(=O)C1` [Compound 63, (R)-4-(2-((4-(2-chloro-4-fluorophenyl)quinolin-7-yl)oxy)propanoyl)piperazin-2-one], the pIC50 in assay [1] is 6.30 to 7.30; in assay [2] it was 6.00 to 7.00.

Take `Cc1ccccc1-c1ccnc2cc(O[C@H](C)C(=O)N3CCC[C@H](CC(=O)O)C3)ccc12` [Compound 13, 2-[(3R)-1-[(2R)-2-[[4-(o-tolyl)-7-quinolyl]oxy]propanoyl]-3-piperidyl]acetic acid]: the results for the pIC50 in assay [1] and in assay [2] were 7.30 to 8.00 and 7.00 to 7.70, respectively.

Regarding `CCOC(=O)[C@H]1CCCN(C(=O)[C@@H](C)Oc2ccc3c(-c4c(C)cccc4C)ccnc3c2)C1` [Compound 4, ethyl (3S)-1-[(2R)-2[[4-(2,6-dimethylphenyl)-7-quinolyl]oxy]propanoyl]piperidine-3-carboxylate], the pIC50 in assay [1] is > 8.00; in assay [2], > 7.70.

Regarding `C[C@@H](Oc1ccc2c(-c3ccccc3Cl)cc(Cl)nc2c1)C(=O)N1CCNCC1` [Compound 104, (2R)-2-[[2-chloro-4-(2-chlorophenyl)-7-quinolyl]oxy]-1-piperazin-1-yl-propan-1-one], the pIC50 was 6.30 to 7.30 in assay [1] and 5.00 to 6.00 in assay [2].

As to `C[C@@H](Oc1ccc2c(-c3ccc(F)cc3Cl)ccnc2c1)C(=O)NC1CC1` [Compound 77, (2R)-2-[[4-(2-chloro-4-fluoro-phenyl)-7-quinolyl]oxy]-N-cyclopropyl-propanamide], the pIC50 in assay [1] is 6.30 to 7.30; in assay [2], 6.00 to 7.00.

For `C[C@@H](Oc1ccc2c(-c3c(Cl)cc(F)cc3Cl)ccnc2c1)C(=O)N1CCC[C@](C)(C(=O)O)C1` [Compound 173, (3S)-1-[(2R)-2-[[4-(2,6-dichloro-4-fluoro-phenyl)-7-quinolyl]oxy]propanoyl]-3-methyl-piperidine-3-carboxylic acid], the values for the pIC50 in assay [1] and in assay [2] were > 8.00 and > 7.70, respectively.

For `Cc1cc(-c2c(C)cccc2C)c2ccc(O[C@H](C)C(=O)N3CCC[C@@H](S(N)(=O)=O)C3)cc2n1` [Compound 114, (3R)-1-[(2R)-2-[[4-(2,6-dimethylphenyl)-2-methyl-7-quinolyl]oxy]propanoyl]piperidine-3-sulfonamide], the results for the pIC50 in assay [1] and in assay [2] were 7.30 to 8.00 and 6.00 to 7.00, respectively.

With `C[C@@H](Oc1ccc2c(-c3c(Cl)cc(F)cc3Cl)ccnc2c1)C(=O)N1CCCC2(CC2C(=O)O)C1` (mixture of isomers) [Compound 177, 5-[rac-(2R)-2-[[4-(2,6-dichloro-4-fluoro-phenyl)-7-quinolyl]oxy]propanoyl]-5-azaspiro[2.5]octane-2-carboxylic acid], the pIC50 was > 8.00 in assay [1] and > 7.70 in assay [2].

Consider `Cc1cc(F)cc(C)c1-c1ccnc2cc(O[C@H](C)C(=O)N3CCCC(C(C)(C)C(=O)O)C3)ccc12` (mixture of isomers) [Compound 186, 2-methyl-2-[1-[rac-(2R)-2-[[4-(4-fluoro-2,6-dimethyl-phenyl)-7-quinolyl]oxy]propanoyl]-3-piperidyl]propanoic acid], for which the pIC50 is > 8.00 in assay [1] and > 7.70 in assay [2].

With `C[C@@H]1CCCCN1C(=O)[C@@H](C)Oc1ccc2c(-c3c(Cl)cc(F)cc3Cl)ccnc2c1` [Compound 204, (2R)-2-[[4-(2,6-dichloro-4-fluoro-phenyl)-7-quinolyl]oxy]-1-[(2R)-2-methyl-1-piperidyl]propan-1-one], the pIC50 is 7.30 to 8.00 in assay [1] and 6.00 to 7.00 in assay [2].

`CC(C)OC(=O)[C@@H](C)Oc1ccc2c(-c3ccccc3Cl)ccnc2c1` [Compound 36, (R)-isopropyl 2-((4-(2-chlorophenyl)quinolin-7 yl)oxy)propanoate FA salt]: the pIC50 in assay [1] was 6.30 to 7.30; in assay [2], 6.00 to 7.00.
